The assay concerns 855422-203-R-J1-PDC complex spheroid growth. Nature of the assay: Anticancer human tumor 855422-203-R-J1-PDC patient-derived bladder carcinoma cell line growth inhibition [AhR]. As to conditions: for viability, T/C: stronger effect = lower value. In a few lines: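 Agents were dosed in half-log steps down from roughly clinical Cmax, or from 10 microM where Cmax was unknown, alone and with AhR antagonists. Read-out: percent test/control growth of tumor spheroids containing HUVEC and MSC stromal cells.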

[1] abbreviates: curve of first compound, second compound 0.1 µM.
The mark [2] stands for this setting: curve of first compound, second compound 0.316 µM.
[3] abbreviates: curve of first compound, second compound 1 µM.
Where [4] appears, read: curve of first compound, second compound 3.16 µM.
Setting [5] is: curve of first compound, second compound 10 µM.
[6] abbreviates: second compound 0.1 µM, first compound 0.0316 µM.
The mark [7] stands for this setting: second compound 0.1 µM, first compound 0.1 µM.
Where [8] appears, read: second compound 0.1 µM, first compound 0.316 µM.
The mark [9] stands for this setting: second compound 0.1 µM, first compound 1 µM.
Where [10] appears, read: second compound 0.316 µM, first compound 0.0316 µM.
Setting [11] is: second compound 0.316 µM, first compound 0.1 µM.
Where [12] appears, read: second compound 0.316 µM, first compound 0.316 µM.
The mark [13] stands for this setting: second compound 0.316 µM, first compound 1 µM.
Where [14] appears, read: second compound 1 µM, first compound 0.0316 µM.
Where [15] appears, read: second compound 1 µM, first compound 0.1 µM.
[16] abbreviates: second compound 1 µM, first compound 0.316 µM.
Where [17] appears, read: second compound 1 µM, first compound 1 µM.
The mark [18] stands for this setting: second compound 3.16 µM, first compound 0.0316 µM.
[19] abbreviates: second compound 3.16 µM, first compound 0.1 µM.
[20] abbreviates: second compound 3.16 µM, first compound 0.316 µM.
The mark [21] stands for this setting: second compound 3.16 µM, first compound 1 µM.
[22] abbreviates: second compound 10 µM, first compound 0.0316 µM.
Where [23] appears, read: second compound 10 µM, first compound 0.1 µM.
Setting [24] is: second compound 10 µM, first compound 0.316 µM.
The mark [25] stands for this setting: second compound 10 µM, first compound 1 µM.

From PubChem BioAssay AID1919005 (Molecular Pharmacology Branch, DTP, NCI, 2023) come the findings set out here.

As usually defined, the IC50 is the point on the concentration scale where inhibition reaches its midpoint. A word on the viability, T/C: it is the ratio of treated to control.

Structures are written as SMILES. Where “and” joins values, the source holds several entries; their conditions need not be identical. Equal entries are not always repeated.
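Further: spheroids exposed to agents for seven days before readout.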
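Wherever viability, T/C is given: percent of DMSO vehicle control luminescence viability.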

`CC(C)CC(NC(=O)C(Cc1ccccc1)NC(=O)c1cnccn1)B(O)O` (stereo unspecified) + CC(CO)NC(=O)c1cc(-c2ccc(Cl)cc2)nn(-c2cnn(C)c2)c1=O: the IC50 was 1.83 nM under setting [1]; 1.82 nM under setting [2]; 1.79 nM under setting [3]; 1.55 nM under setting [4]; 1.42 nM under setting [5]. Besides, the viability, T/C by setting is: (second compound 0.1 µM, first compound 0.000949 µM) 115%; (second compound 0.1 µM, first compound 0.003 µM) 0.93%; (second compound 0.1 µM, first compound 0.00949 µM) 0.37%; (second compound 0.1 µM, first compound 0.03 µM) 0.65%; (second compound 0.1 µM, first compound 0.0949 µM) 0.65%; (second compound 0.1 µM, first compound 0.3 µM) 0.89%. The viability, T/C by setting is: (second compound 0.316 µM, first compound 0.000949 µM) 113%; (second compound 0.316 µM, first compound 0.003 µM) 1.18%; (second compound 0.316 µM, first compound 0.00949 µM) 0.04%; (second compound 0.316 µM, first compound 0.03 µM) 0.01%; (second compound 0.316 µM, first compound 0.0949 µM) 0.02%; (second compound 0.316 µM, first compound 0.3 µM) 0.12%. Further, the viability, T/C is, setting by setting: (second compound 1 µM, first compound 0.000949 µM) 111%; (second compound 1 µM, first compound 0.003 µM) 0.73%; (second compound 1 µM, first compound 0.00949 µM) 0.02%; (second compound 1 µM, first compound 0.03 µM) 0.22%; (second compound 1 µM, first compound 0.0949 µM) 0.02%; (second compound 1 µM, first compound 0.3 µM) 0.11%. For the same compound, the viability, T/C was 86.3% (second compound 3.16 µM, first compound 0.000949 µM); 0.7% (second compound 3.16 µM, first compound 0.003 µM); 2.8% (second compound 3.16 µM, first compound 0.00949 µM); 0.03% (second compound 3.16 µM, first compound 0.03 µM); 0.14% (second compound 3.16 µM, first compound 0.0949 µM); 0.14% (second compound 3.16 µM, first compound 0.3 µM). Further, the viability, T/C (second compound 10 µM, first compound 0.000949 µM) is 76.3%; the viability, T/C (second compound 10 µM, first compound 0.003 µM) is 1%; the viability, T/C (second compound 10 µM, first compound 0.00949 µM) is 0.16%; the viability, T/C (second compound 10 µM, first compound 0.03 µM) is 0.18%; the viability, T/C (second compound 10 µM, first compound 0.0949 µM) is 0.14%; the viability, T/C (second compound 10 µM, first compound 0.3 µM) was 0.2%.

Regarding `CC1COCCN1c1cc(-c2ccnn2C)c2ccnc(-c3ccn[nH]3)c2n1` (stereo unspecified) + Cc1cncc(-c2nc(NCCc3c[nH]c4ccccc34)c3ncn(C(C)C)c3n2)c1, the IC50 reads like this: under setting [1], 254 nM; under setting [2], 405 nM; under setting [3], 361 nM; under setting [4], 80.4 nM; under setting [5], less than 3.16 nM. For the same compound, the viability, T/C (second compound 0.1 µM, first compound 0.00316 µM) is 83.7%; the viability, T/C (second compound 0.1 µM, first compound 0.01 µM) was 96.2%; the viability, T/C under setting [6] is 93.6%; the viability, T/C under setting [7] was 97.8%; the viability, T/C under setting [8] is 39.9%; the viability, T/C under setting [9] is 12.7%. For the same compound, the viability, T/C was 91.3% (second compound 0.316 µM, first compound 0.00316 µM); 91.1% (second compound 0.316 µM, first compound 0.01 µM); 74.9% under setting [10]; 85.6% under setting [11]; 60.6% under setting [12]; 11.1% under setting [13]. In addition, the viability, T/C by setting is: (second compound 1 µM, first compound 0.00316 µM) 77.2%; (second compound 1 µM, first compound 0.01 µM) 79.9%; under setting [14], 85.5%; under setting [15], 71.4%; under setting [16], 55.6%; under setting [17], 10.7%. Moreover, the viability, T/C runs as follows: (second compound 3.16 µM, first compound 0.00316 µM) 75.6%; (second compound 3.16 µM, first compound 0.01 µM) 77.2%; under setting [18], 63%; under setting [19], 28.6%; under setting [20], 50.5%; under setting [21], 9.55%. Also, the viability, T/C runs as follows: (second compound 10 µM, first compound 0.00316 µM) 3.1%; (second compound 10 µM, first compound 0.01 µM) 4.56%; under setting [22], 3.12%; under setting [23], 6.41%; under setting [24], 2.62%; under setting [25], 1.62%.

In the case of `COc1cc(C2c3cc4c(cc3C(OC3OC5COC(C)OC5C(O)C3O)C3COC(=O)C23)OCO4)cc(OC)c1O` (stereo unspecified), the viability, T/C was 96.6% and 94.9% and 94.2% (compound 0.0316 µM); 98.4% and 97.4% and 106% (compound 0.1 µM); 61% and 81.5% and 67.7% (compound 0.316 µM); 14.2% and 22% and 29.3% (compound 1 µM); 9.05% and 11.6% and 17.3% (compound 3.16 µM); 4.28% and 5.57% and 7.14% (compound 10 µM). Under “curve of compound”, the IC50 was 417 nM and 584 nM and 553 nM.

As for `COc1cccc2c1C(=O)c1c(O)c3c(c(O)c1C2=O)CC(O)(C(=O)CO)CC3OC1CC(N)C(O)C(C)O1` (stereo unspecified), the viability, T/C by setting is: (compound 0.0316 µM) 19% and 41.1% and 29.2%; (compound 0.1 µM) 13.1% and 28.8% and 16.9%; (compound 0.316 µM) 3.14% and 7.44% and 4.25%; (compound 1 µM) 0.97% and 2.58% and 1.55%; (compound 3.16 µM) 1.22% and 1.89% and 0.79%; (compound 10 µM) 1.82% and 4.62% and 3.32%. The half-inhibitory concentration (IC50) (curve of compound) is less than 31.6 nM.

Consider `CC1(C)CCC(CN2CCN(c3ccc(C(=O)NS(=O)(=O)c4ccc(NCC5CCOCC5)c([N+](=O)[O-])c4)c(Oc4cnc5[nH]ccc5c4)c3)CC2)=C(c2ccc(Cl)cc2)C1`, for which the viability, T/C was 98.4% and 107% and 103% (compound 0.0316 µM); 95.8% and 106% and 98.7% (compound 0.1 µM); 108% and 103% (2×) (compound 0.316 µM); 97.6% and 116% and 104% (compound 1 µM); 108% and 118% and 100% (compound 3.16 µM); 13.2% and 22.8% and 8.45% (compound 10 µM). Also, under “curve of compound”, the IC50 is 6190 nM and 6990 nM and 5930 nM.

`COc1cc(C2c3cc4c(cc3C(OC3OC5COC(C)OC5C(O)C3O)C3COC(=O)C23)OCO4)cc(OC)c1O` (stereo unspecified) + Cc1cncc(-c2nc(NCCc3c[nH]c4ccccc34)c3ncn(C(C)C)c3n2)c1: the half-maximal inhibitory concentration (IC50) runs as follows: under setting [1], 372 nM; under setting [2], 207 nM; under setting [3], 207 nM; under setting [4], 173 nM; under setting [5], less than 31.6 nM. Also, the viability, T/C reads like this: under setting [6], 85.9%; under setting [7], 85.5%; under setting [8], 55.4%; under setting [9], 14.8%; (second compound 0.1 µM, first compound 3.16 µM) 9.41%; (second compound 0.1 µM, first compound 10 µM) 3.49%. Also, the viability, T/C is, setting by setting: under setting [10], 88.4%; under setting [11], 83.7%; under setting [12], 30.2%; under setting [13], 15%; (second compound 0.316 µM, first compound 3.16 µM) 8.46%; (second compound 0.316 µM, first compound 10 µM) 3.99%. For the same compound, the viability, T/C by setting is: under setting [14], 83.8%; under setting [15], 79.7%; under setting [16], 32.5%; under setting [17], 14.4%; (second compound 1 µM, first compound 3.16 µM) 8.33%; (second compound 1 µM, first compound 10 µM) 6.08%. Besides, the viability, T/C is, setting by setting: under setting [18], 76.8%; under setting [19], 73.7%; under setting [20], 24.4%; under setting [21], 13.2%; (second compound 3.16 µM, first compound 3.16 µM) 6.72%; (second compound 3.16 µM, first compound 10 µM) 4.03%. The viability, T/C under setting [22] was 9.82%; the viability, T/C under setting [23] is 11.7%; the viability, T/C under setting [24] was 1.25%; the viability, T/C under setting [25] was 0.55%; the viability, T/C (second compound 10 µM, first compound 3.16 µM) is 1.09%; the viability, T/C (second compound 10 µM, first compound 10 µM) is 2.98%.
